From patent US10259810B2, “N-sulfonylated pyrazolo[3,4-b]pyridin-6-carboxamides and method of use” (AbbVie S.à.r.l., priority 2015, dated 2019) come the findings set out here.

Common to all, as to format: cell-based
The target in one assay is T1, CFTR ΔF508 (Homo sapiens, UniProt P13569, DEL508-508).
T1 construct: bronchial epithelial cells isolated from CF patients homozygous for the CFTR ΔF508 mutation; McGill University; Asterand; University of North Carolina hAEC-CF; host or cells: primary human bronchial epithelial cells from CF patients homozygous for ΔF508, differentiated at air-liquid interface
The experiment in a line: Chronic TECC assay, primary bronchial epithelial cells of CF patients homozygous for CFTR ΔF508 (corrector, co-corrector and potentiator). The settings on record: chronic TECC, AUC = full area under the curve upon forskolin stimulation; for % Activity at 1 μM (AUC**): test compound at 1 μM; for EC50: read-out: EC50 (nM) (AUC**). A digest of the protocol:
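Primary bronchial epithelial cells from ΔF508-homozygous CF patients on collagen IV-coated Transwells were chronically treated with test compound plus corrector and potentiator, which were re-added before recording. Ieq was derived from PD and Rt in NaCl-Ringer, pH 7.4, at 37° C, with apical amiloride and bilateral forskolin, recorded every 2 min over 20 min. Ieq increase was normalized to controls, and EC50 was taken from per-well concentrations.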

Assay [1] addresses T2, ΔF508-CFTR (Homo sapiens, UniProt P13569, DEL508-508).
T2 construct: host or cells: CFBE41o-, doxycycline-inducible
Kind of assay: CFTR cell surface levels using HRP-tagged ΔF508-CFTR expressing CFBE cells, in the presence of a co-corrector. The settings on record: HRP-tagged ΔF508-CFTR CFBE cells, in the presence of 3 μM co-corrector; for EC50: read-out: EC50. A digest of the protocol:
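Chemiluminescent read-out of surface HRP (15 min, dark) after PBS washes. Activity is normalized as 100×(sample−DMSO)/(3 μM co-corrector alone−DMSO).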

The target in assay [2] is T2, ΔF508-CFTR. The experiment in a line: CFTR cell surface levels using HRP-tagged ΔF508-CFTR expressing CFBE cells, intrinsic corrector capacity. Also noted: % Activation: concentration or dose not given beside the values. The following applies: HRP-tagged ΔF508-CFTR expressing CFBE41o- cells, compound alone (intrinsic corrector capacity), 20 hours at 33° C.; for EC50: read-out: EC50. A digest of the protocol:
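Read-out: chemiluminescent HRP activity of ECL4-HRP-tagged ΔF508-CFTR at the cell surface, 15 min substrate in dark. Normalized as 100×(sample−DMSO)/(positive control−DMSO).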

T1 sequence (P13569 with tags, fused parts or gaps DEL508-508): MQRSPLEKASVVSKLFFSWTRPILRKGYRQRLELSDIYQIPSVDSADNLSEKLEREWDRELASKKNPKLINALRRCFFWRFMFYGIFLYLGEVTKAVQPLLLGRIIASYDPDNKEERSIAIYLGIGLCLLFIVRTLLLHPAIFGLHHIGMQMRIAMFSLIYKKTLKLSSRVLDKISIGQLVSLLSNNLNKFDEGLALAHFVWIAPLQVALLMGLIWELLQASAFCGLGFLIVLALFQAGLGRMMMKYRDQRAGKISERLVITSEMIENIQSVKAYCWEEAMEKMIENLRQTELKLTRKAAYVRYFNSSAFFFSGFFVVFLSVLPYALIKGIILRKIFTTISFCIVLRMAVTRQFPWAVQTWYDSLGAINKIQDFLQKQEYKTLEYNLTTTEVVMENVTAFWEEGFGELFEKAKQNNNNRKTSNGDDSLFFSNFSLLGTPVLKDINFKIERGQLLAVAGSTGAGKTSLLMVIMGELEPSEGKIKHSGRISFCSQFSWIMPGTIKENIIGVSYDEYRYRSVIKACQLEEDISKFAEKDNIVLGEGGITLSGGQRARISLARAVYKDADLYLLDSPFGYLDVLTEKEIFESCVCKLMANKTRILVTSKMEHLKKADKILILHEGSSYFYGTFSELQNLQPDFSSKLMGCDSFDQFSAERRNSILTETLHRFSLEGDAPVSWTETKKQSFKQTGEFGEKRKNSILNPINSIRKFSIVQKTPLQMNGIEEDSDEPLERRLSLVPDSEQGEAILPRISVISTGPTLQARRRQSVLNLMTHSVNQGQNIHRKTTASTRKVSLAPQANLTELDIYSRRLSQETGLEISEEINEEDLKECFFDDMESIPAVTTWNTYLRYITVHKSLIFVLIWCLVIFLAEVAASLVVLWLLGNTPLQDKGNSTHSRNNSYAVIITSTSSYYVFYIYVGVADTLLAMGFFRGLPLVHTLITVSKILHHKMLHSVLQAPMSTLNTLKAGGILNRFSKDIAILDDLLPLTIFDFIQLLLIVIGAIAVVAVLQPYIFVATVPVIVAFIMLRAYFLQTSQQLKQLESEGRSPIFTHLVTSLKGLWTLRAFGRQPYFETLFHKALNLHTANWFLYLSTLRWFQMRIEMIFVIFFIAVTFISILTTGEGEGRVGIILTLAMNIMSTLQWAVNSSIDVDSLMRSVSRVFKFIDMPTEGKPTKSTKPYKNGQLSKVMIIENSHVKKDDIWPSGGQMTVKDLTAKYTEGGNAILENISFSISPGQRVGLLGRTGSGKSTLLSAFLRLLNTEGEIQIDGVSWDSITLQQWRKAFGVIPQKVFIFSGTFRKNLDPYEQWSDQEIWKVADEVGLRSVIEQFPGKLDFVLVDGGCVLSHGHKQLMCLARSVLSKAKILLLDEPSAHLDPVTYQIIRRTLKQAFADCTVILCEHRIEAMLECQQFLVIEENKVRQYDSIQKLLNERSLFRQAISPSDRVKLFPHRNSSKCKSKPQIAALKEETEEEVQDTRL
T2 sequence (P13569 with tags, fused parts or gaps DEL508-508): as above

Consider `COCC1CCN(c2cc(C(=O)NS(=O)(=O)c3cn(C)c(C)n3)nc3c2c(C2CCC2)nn3-c2ccccc2)CC1` [Compound 250, 3-cyclobutyl-N-(1,2-dimethyl-1H-imidazole-4-sulfonyl)-4-[4-(methoxymethyl)piperidin-1-yl]-1-phenyl-1H-pyrazolo[3,4-b]pyridine-6-carboxamide], for which the “% Activity at 1 μM (AUC**)” value at CFTR ΔF508 stood at 331.21%. The entries for the “% Activation” value at ΔF508-CFTR [1] and at ΔF508-CFTR [2] were 440.4% and 232.7%, respectively. For the same compound, the EC50 on ΔF508-CFTR [1] worked out at 372 nM; at ΔF508-CFTR [2], 514 nM.

Consider `COCCS(=O)(=O)NC(=O)c1cc(N2CCC(COC)CC2)c2c(C(C)C)nn(C3CCCCC3)c2n1` [Compound 251, 1-cyclohexyl-N-(2-methoxyethanesulfonyl)-4-[4-(methoxymethyl)piperidin-1-yl]-3-(propan-2-yl)-1H-pyrazolo[3,4-b]pyridine-6-carboxamide], for which the “% Activity at 1 μM (AUC**)” value on CFTR ΔF508 turned out to be 336.34%. On ΔF508-CFTR [1], the “% Activation” value is given as 488.7% and the EC50 amounted to 367 nM. In addition, at ΔF508-CFTR [2], the “% Activation” value came to 273.3% and the EC50 is 634 nM.

Regarding `COCCN(CCOC)c1ccc(-c2cc(C(=O)NS(C)(=O)=O)nc3c2c(C(C)C)nn3-c2ccnc(N3CCOCC3)c2)cn1` [Compound 252, 4-{6-[bis(2-methoxyethyl)amino]pyridin-3-yl}-N-(methanesulfonyl)-1-[2-(morpholin-4-yl)pyridin-4-yl]-3-(propan-2-yl)-1H-pyrazolo[3,4-b]pyridine-6-carboxamide], on CFTR ΔF508, the “% Activity at 1 μM (AUC**)” value came to 248.51%. Besides, on ΔF508-CFTR [1], the “% Activation” value came out at 310.75% and the EC50 was 1690 nM. Further, on ΔF508-CFTR [2], the “% Activation” value worked out at 115.2% and the EC50 turned out to be 396 nM.

For the compound `COCCS(=O)(=O)NC(=O)c1cc(N2CCC(COC)CC2)c2c(C(C)C)nn(CC3CCC3)c2n1` [Compound 263, 1-(cyclobutylmethyl)-N-(2-methoxyethanesulfonyl)-4-[4-(methoxymethyl)piperidin-1-yl]-3-(propan-2-yl)-1H-pyrazolo[3,4-b]pyridine-6-carboxamide], at CFTR ΔF508, the EC50 came to 77 nM and the “% Activity at 1 μM (AUC**)” value stood at 399.85%. In addition, at ΔF508-CFTR [1], the “% Activation” value amounted to 475.45% and the EC50 came to 404 nM. Also, on ΔF508-CFTR [2], the “% Activation” value is listed as 260.1% and the EC50 was 445 nM.

On to `COCC1CCN(c2cc(C(=O)NS(=O)(=O)CCN3CCOCC3)nc3c2c(C2CCC2)nn3-c2ccccc2)CC1` [Compound 267, 3-cyclobutyl-4-[4-(methoxymethyl)piperidin-1-yl]-N-[2-(morpholin-4-yl)ethanesulfonyl]-1-phenyl-1H-pyrazolo[3,4-b]pyridine-6-carboxamide], for which the 50% effective concentration (EC50) at CFTR ΔF508 came out at 130 nM; on ΔF508-CFTR [1], 57.1 nM; at ΔF508-CFTR [2], 172 nM. For the same compound, the “% Activation” value on ΔF508-CFTR [1] was found to be 433%; at ΔF508-CFTR [2], 274.8%.

Turning to `COCCS(=O)(=O)NC(=O)c1cc(OCC2(C)COC2)c2c(C3CCC3)nn(-c3ccccc3)c2n1` [Compound 269, 3-cyclobutyl-N-(2-methoxyethanesulfonyl)-4-[(3-methyloxetan-3-yl)methoxy]-1-phenyl-1H-pyrazolo[3,4-b]pyridine-6-carboxamide], the “% Activity at 1 μM (AUC**)” value on CFTR ΔF508 was 172.35%. For the same compound, on ΔF508-CFTR [1], the “% Activation” value is recorded as 275.45% and the EC50 came out at 97.2 nM. Further, at ΔF508-CFTR [2], the “% Activation” value worked out at 120.6% and the EC50 turned out to be 246 nM.

On to `CC(C)N1CCN(c2cc(C(=O)NS(C)(=O)=O)nc3c2c(C2CCC2)nn3-c2ccccc2)CC1` [Compound 270, 3-cyclobutyl-N-(methanesulfonyl)-1-phenyl-4-[4-(propan-2-yl)piperazin-1-yl]-1H-pyrazolo[3,4-b]pyridine-6-carboxamide], for which, at CFTR ΔF508, the EC50 came out at 297 nM and the “% Activity at 1 μM (AUC**)” value is given as 250%. Also, at ΔF508-CFTR [1], the “% Activation” value was 327.9% and the EC50 was 731 nM. Moreover, at ΔF508-CFTR [2], the “% Activation” value was 161.5% and the EC50 was 1490 nM.

With `COCC1CCN(c2cc(C(=O)NS(=O)(=O)CCCN3CCOCC3)nc3c2c(C(C)C)nn3-c2ccc(F)cc2)CC1` [Compound 272, 1-(4-fluorophenyl)-4-[4-(methoxymethyl)piperidin-1-yl]-N-[3-(morpholin-4-yl)propane-1-sulfonyl]-3-(propan-2-yl)-1H-pyrazolo[3,4-b]pyridine-6-carboxamide], the “% Activity at 1 μM (AUC**)” value at CFTR ΔF508 is given as 285.35%. Further, at ΔF508-CFTR [1], the “% Activation” value is given as 451.2% and the EC50 is 43.3 nM. At ΔF508-CFTR [2], the “% Activation” value stood at 268.2% and the EC50 was determined as 96.5 nM.

Regarding `COCC1CCN(c2cc(C(=O)NS(=O)(=O)CCN(C)C)nc3c2c(C2CCC2)nn3-c2ccccc2)CC1` [Compound 273, 3-cyclobutyl-N-[2-(dimethylamino)ethanesulfonyl]-4-[4-(methoxymethyl)piperidin-1-yl]-1-phenyl-1H-pyrazolo[3,4-b]pyridine-6-carboxamide], the “% Activity at 1 μM (AUC**)” value on CFTR ΔF508 is listed as 197.06%. Besides, at ΔF508-CFTR [1], the “% Activation” value is listed as 344.05% and the EC50 came out at 111 nM. On ΔF508-CFTR [2], the “% Activation” value was 182.4% and the EC50 came to 562 nM.

Take `CC(=O)N1CCC(F)(COc2cc(C(=O)NS(C)(=O)=O)nc3c2c(C2CCC2)nn3-c2ccccc2)CC1` [Compound 274, 4-[(1-acetyl-4-fluoropiperidin-4-yl)methoxy]-3-cyclobutyl-N-(methanesulfonyl)-1-phenyl-1H-pyrazolo[3,4-b]pyridine-6-carboxamide]: on CFTR ΔF508, the EC50 is more than 300 nM and the “% Activity at 1 μM (AUC**)” value is given as 224.99%. In addition, at ΔF508-CFTR [1], the “% Activation” value was 300% and the EC50 stood at 398 nM. In addition, on ΔF508-CFTR [2], the “% Activation” value was determined as 159.05% and the EC50 came to 842 nM.

For `COCC1CCN(c2cc(C(=O)NS(C)(=O)=O)nc3c2c(C(C)C)nn3-c2ccnc(N3CCOCC3)n2)CC1` [Compound 279, N-(methanesulfonyl)-4-[4-(methoxymethyl)piperidin-1-yl]-1-[2-(morpholin-4-yl)pyrimidin-4-yl]-3-(propan-2-yl)-1H-pyrazolo[3,4-b]pyridine-6-carboxamide], the results for the EC50 at CFTR ΔF508, at ΔF508-CFTR [1] and at ΔF508-CFTR [2] were 109 nM, 227 nM and 534 nM, respectively. The “% Activation” value at ΔF508-CFTR [1] is listed as 530.6%; at ΔF508-CFTR [2], 308.4%.

Consider `COCC1CCN(c2cc(C(=O)NS(=O)(=O)CCCN3CCCC3)nc3c2c(C(C)C)nn3-c2ccc(F)cc2)CC1` [Compound 291, 1-(4-fluorophenyl)-4-[4-(methoxymethyl)piperidin-1-yl]-3-(propan-2-yl)-N-[3-(pyrrolidin-1-yl)propane-1-sulfonyl]-1H-pyrazolo[3,4-b]pyridine-6-carboxamide], for which the “% Activity at 1 μM (AUC**)” value on CFTR ΔF508 stood at 255.92%. In addition, at ΔF508-CFTR [1], the “% Activation” value is reported as 420.07% and the EC50 amounted to 591 nM. Moreover, at ΔF508-CFTR [2], the “% Activation” value is 219.5% and the EC50 amounted to 3330 nM.

For the compound `COC(C)(C)C1CCN(c2cc(C(=O)NS(C)(=O)=O)nc3c2c(C2CCC2)nn3-c2ccccc2)CC1` [Compound 294, 3-cyclobutyl-N-(methanesulfonyl)-4-[4-(2-methoxypropan-2-yl)piperidin-1-yl]-1-phenyl-1H-pyrazolo[3,4-b]pyridine-6-carboxamide], the EC50 at CFTR ΔF508 came to 21 nM; at ΔF508-CFTR [1] it was 22.1 nM; on ΔF508-CFTR [2], 62.2 nM. Further, the “% Activation” value came out at 548.45% on ΔF508-CFTR [1] and 319.6% at ΔF508-CFTR [2].
